Test system: phosphorylation of Serine 473 in Akt in MDA-MB-468 cells
Assay: In Vitro phospho-Ser473 Akt Assay (Acumen Explorer)
Assay type: cell-based
Conditions: Homo sapiens, MDA-MB-468, read-out: IC50 values against mTOR (phospho-Ser473 Akt assay)

Structure (SMILES)	IC50 [µM]
COC(=O)c1cccc(-c2nc(N3CCOC[C@@H]3C)c3ccc(-c4ccc(OC)c(CO)c4)nc3n2)c1 [Example 29h]	< 11
C[C@H]1CCCCN1c1nc(N2CCOC[C@@H]2C)c2ccc(-c3ccc(Cl)cc3)nc2n1 [Example 28de]	< 11
C[C@H]1COCCN1c1nc(-c2cccnc2F)nc2nc(-c3cccc(CO)c3)ccc12 [Example 29u]	< 11
COc1ccc(-c2ccc3c(N4CCOC[C@@H]4C)nc(Nc4ccncn4)nc3n2)cc1CO [Example 28n]	< 11
C[C@@H]1CN(c2nc(N3CCOC[C@@H]3C)c3ccc(-c4ccccc4)nc3n2)C[C@H](C)O1 [Example 11j]	< 0.3
C[C@H]1COCCN1c1nc(N2CCOC[C@@H]2C)c2ccc(-c3ccc(CNCC(N)=O)o3)nc2n1 [Example 17j]	< 11
C[C@H]1COCCN1c1nc(N2CCOC[C@@H]2C)c2ccc(-c3cccc(C(=O)N4CC[C@@H](O)C4)c3)nc2n1 [Example 13g]	< 11
COc1ccc(-c2ccc3c(N4CCOC[C@@H]4C)nc(-c4cccc([N+](=O)[O-])c4)nc3n2)cc1CO [Example 29i]	< 11
COCCN(C)Cc1cc(-c2ccc3c(N4CCOC[C@@H]4C)nc(N4CCOC[C@@H]4C)nc3n2)ccc1F [Example 14aj]	< 11
C[C@H]1COCCN1c1nc(N2CCOC[C@@H]2C)c2ccc(-c3cccc(C(=O)NCC(F)(F)F)c3)nc2n1 [Example 13f]	< 11
COc1ccc(-c2ccc3c(N4CCOC[C@@H]4C)nc(NC(C)CN(C)C)nc3n2)cc1CO (stereo partly drawn) [Example 28ct]	< 11
COC(=O)c1cncn1-c1nc(N2CCOC[C@@H]2C)c2ccc(-c3ccc(OC)c(CO)c3)nc2n1 [Example 28az]	< 11
CC(C)Oc1ccc(-c2ccc3c(N4CCOC[C@@H]4C)nc(N4CCOC[C@@H]4C)nc3n2)cc1C(N)=O [Example 11cw, 5-[2,4-bis-((S)-3-methyl-morpholin-4-yl)-pyrido[2,3-d]pyrimidin-7-yl]-2-isopropoxy-benzamide]	< 11
COc1ccc(-c2ccc3c(N4CCOC[C@@H]4C)nc(-c4cccc(C)c4)nc3n2)cc1CO [Example 29n]	< 11
COc1ccc(-c2ccc3c(N4CCOC[C@@H]4C)nc(Nc4cccnc4)nc3n2)cc1CO [Example 28o]	< 11
C[C@H]1COCCN1c1nc(N2CCOC[C@@H]2C)c2ccc(-c3cccnc3)nc2n1 [Example 11bu]	< 11
C[C@H]1COCCN1c1nc(-c2cnn(C)c2)nc2nc(-c3cccc(CO)c3)ccc12 [Example 29v]	< 11
COc1cccc(-c2nc(N3CCOC[C@@H]3C)c3ccc(-c4ccc(OC)c(CO)c4)nc3n2)c1 [Example 29o]	< 11
CCOc1nc(N2CCOC[C@@H]2C)c2ccc(-c3ccc(OC)c(CO)c3)nc2n1 [Example 28cv]	< 11
COc1ccc(-c2ccc3c(N4CCOC[C@@H]4C)nc(N4CCOC[C@@H]4C)nc3n2)cn1 [Example 11n]	< 0.3

Same assay, conditions: Homo sapiens; MDA-MB-468 cells, 2 hours; read-out: IC50, phospho-Ser473 Akt assay (cellular IC50, measured by pAkt)

IC50 [µM]	Structure (SMILES)
0.381	C[C@H]1COCCN1c1nc(N2CCOC[C@@H]2C)c2ccc(-c3ccc4c(c3)C(=O)NCCN4)nc2n1 [Example 11df, 7-[2,4-bis-((S)-3-methyl-morpholin-4-yl)-pyrido[2,3-d]pyrimidin-7-yl]-1,2,3,4-tetrahydro-benzo[e][1,4]diazepin-5-one]

Molecular target: T1, mTOR (Homo sapiens, UniProt P42345)
T1 construct: mTOR protein was isolated from HeLa cell cytoplasmic extract by immunoprecipitation; endogenous in cells; host or cells: HeLa cell cytoplasmic extract (immunoprecipitate)
Assay: Biological Assay: mTOR enzyme activity, mTOR immunoprecipitated from HeLa cell cytoplasmic extract, recombinant PHAS-1 as substrate
Assay type: biochemical
Conditions: Biological Assay, upper bounds; read-out: IC50 values against mTOR

IC50 [µM]	Structure (SMILES)
< 1	C[C@@H]1CN(c2nc(N3CCOCC3)c3ccc(Nc4ccc(Cl)cc4)nc3n2)C[C@H](C)O1 [Example 2k]
< 1	COC(=O)c1ccc(Nc2ccc3c(N4CCOCC4)nc(N4C[C@@H](C)O[C@@H](C)C4)nc3n2)cc1 [Example 2g]
< 1	COc1ccc(-c2ccc3c(N4CCOCC4)nc(N4C[C@@H](C)O[C@@H](C)C4)nc3n2)cc1OC [Example 1ah]
< 10	COC(=O)c1ccc(Nc2ccc3c(N4CCOCC4)nc(N4C[C@@H](C)O[C@@H](C)C4)nc3n2)o1 [Example 2an]
< 1	C[C@@H]1CN(c2nc(N3CCOCC3)c3ccc(N)nc3n2)C[C@H](C)O1 [Example 3a]
< 1	C[C@@H]1CN(c2nc(N3CCOCC3)c3ccc(-c4cccc(C(N)=O)c4)nc3n2)C[C@H](C)O1 [Example 1ai]
< 10	C[C@@H]1CN(c2nc(N3CCOCC3)c3ccc(NC(=O)c4nc[nH]c4N)nc3n2)C[C@H](C)O1 [Example 5g]
< 0.1	COc1ccc(-c2ccc3c(N4CCOCC4)nc(N4C[C@@H](C)O[C@@H](C)C4)nc3n2)cc1CNCc1cccs1 [Example 8j]
< 1	C[C@@H]1CN(c2nc(N3CCOCC3)c3ccc(Nc4cc(F)c(F)cc4[N+](=O)[O-])nc3n2)C[C@H](C)O1 [Example 2ac]
< 1	CSc1nc2ccc(Nc3ccc4c(N5CCOCC5)nc(N5C[C@@H](C)O[C@@H](C)C5)nc4n3)cc2s1 [Example 2ad]
< 1	COC(=O)c1cc(Nc2ccc3c(N4CCOCC4)nc(N4C[C@@H](C)O[C@@H](C)C4)nc3n2)cn1C [Example 2as]
< 1	C[C@@H]1CN(c2nc(N3CCOCC3)c3ccc(Nc4ccc(C#N)cc4)nc3n2)C[C@H](C)O1 [Example 2h]
< 10	C[C@@H]1CN(c2nc(N3CCOCC3)c3ccc(Nc4cccc5cnccc45)nc3n2)C[C@H](C)O1 [Example 2f]
< 1	Cc1ccc(-c2ccc3c(N4CCOCC4)nc(N4C[C@@H](C)O[C@@H](C)C4)nc3n2)s1 [Example 1t]
< 1	COc1ccc(-c2ccc3c(N4CCOCC4)nc(N4CCCC[C@@H]4C)nc3n2)cc1 [Example 1u]
< 10	CC(=O)Nc1ccc2c(N3CCOCC3)nc(N3C[C@@H](C)O[C@@H](C)C3)nc2n1 [Example 5f]
< 1	Cc1cscc1-c1ccc2c(N3CCOCC3)nc(N3C[C@@H](C)O[C@@H](C)C3)nc2n1 [Example 1v]
< 1	C[C@@H]1CN(c2nc(N3CCOCC3)c3ccc(-c4cnn(C)c4)nc3n2)C[C@H](C)O1 [Example 1ad]
< 0.1	C[C@@H]1CN(c2nc(N3CCOCC3)c3ccc(Nc4ccncc4)nc3n2)C[C@H](C)O1 [Example 2ba]
< 10	C[C@@H]1CN(c2nc(N3CCOCC3)c3ccc(-c4cncnc4)nc3n2)C[C@H](C)O1 [Example 1az]
< 1	C[C@H]1CCCCN1c1nc(N2CCOCC2)c2ccc(Nc3ccccc3)nc2n1 [Example 2i]
< 10	C=CCNc1ccc2c(N3CCOCC3)nc(N3C[C@@H](C)O[C@@H](C)C3)nc2n1 [Example 2am]
< 1	CC(=O)c1ccc(-c2ccc3c(N4CCOCC4)nc(N4C[C@@H](C)O[C@@H](C)C4)nc3n2)s1 [Example 1ag]
< 1	CC(C)c1cccc(Nc2ccc3c(N4CCOCC4)nc(N4C[C@@H](C)O[C@@H](C)C4)nc3n2)c1 [Example 2n]
< 10	C[C@@H]1CN(c2nc(N3CCOCC3)c3ccc(Nc4ccc5cccc(O)c5n4)nc3n2)C[C@H](C)O1 [Example 2ay]
< 1	Cc1cc(-c2ccc3c(N4CCOCC4)nc(N4C[C@@H](C)O[C@@H](C)C4)nc3n2)cs1 [Example 1y]
< 10	C[C@@H]1CN(c2nc(N3CCOCC3)c3ccc(Nc4nc5cncnc5[nH]4)nc3n2)C[C@H](C)O1 [Example 2au]
< 10	C[C@@H]1CN(c2nc(N3CCOCC3)c3ccc(NC(=O)c4cnc5ccccc5n4)nc3n2)C[C@H](C)O1 [Example 5e]
< 0.1	COc1ccc(-c2ccc3c(N4CCOCC4)nc(N(CCO)CCO)nc3n2)cc1CO [Example 1o]
< 10	C[C@@H]1CN(c2nc(N3CCOCC3)c3ccc(-c4cccc5cccnc45)nc3n2)C[C@H](C)O1 [Example 1ay]
